Data reported in patent US8586551B2, “18-membered macrocycles and analogs thereof” (Optimer Pharmaceuticals, Inc., priority 2005, dated 2013).
≈ marks a conversion by molar mass, not a printed value.

What was measured:
Type in all cases: cell-based
Clostridium species = test: MIC against anaerobes: Clostridium species; details: Clostridium species (19)
Protocol: The in vitro activity of OPT-80 was determined against 350 anaerobes. The experimental procedure for which is outlined in Antimicrobial Agents and Chemotherapy, 2004, 48: 4430-4434, which is hereby incorporated by reference in its entirety.
All organisms, including the 21 C. difficile strains, were separate isolates and not clonally related. All quality-control gram-negative and -positive strains recommended by NCCLS were included with each run: in every case, results (where available) were in range.

[1] = test system: Anaerobic non-spore-forming gram-positive rods; test: MIC against intestinal bacteria: anaerobic non-spore-forming gram-positive rods
[2] = test system: Peptostreptococcus asaccharolyticus; test: MIC against anaerobes: Peptostreptococcus asaccharolyticus; details: Peptostreptococcus asaccharolyticus (15)
453 bacterial isolates = test: MIC against intestinal bacteria: total for all strains

CCc1c(Cl)c(O)c(Cl)c(O)c1C(=O)O[C@H]1[C@H](O)[C@H](OC)[C@H](OCC2=CC=CC[C@H](O)C(C)=C[C@H](CC)[C@@H](O[C@@H]3OC(C)(C)[C@@H](OC(=O)C(C)C)[C@H](O)[C@@H]3O)C(C)=CC(C)=CC[C@@H]([C@@H](C)O)OC2=O)O[C@@H]1C [R-Tiacumicin B, 3-[[[6-Deoxy-4-O-(3,5-dichloro-2-ethyl-4,6-dihydroxybenzoyl)-2-O-methyl-β-D-mannopyranosyl]oxy]-methyl]-12(R)-[[6-deoxy-5-C-methyl-4-O-(2-methyl-1-oxopropyl)-β-D-lyxo-hexopyranosyl]oxy]-11(S)-ethyl-8(S)-hydroxy-18(S)-(1(R)-hydroxyethyl)-9,13,15-trimethyloxacyclooctadeca-3,5,9,13,15-pentaene-2-one]
MIC50 (Clostridium species): < 0.016 µg/mL | MIC90 (Clostridium species): 0.03 µg/mL (≈ 0.0284 µM) | MIC90 [1]: 32 µg/mL (≈ 30.2 µM) | MIC50 ([1]; Anaerobic non-spore-forming gram-positive rods (63)): 1 µg/mL (≈ 0.945 µM) | MIC50 ([2]; Peptoniphilus asaccharolyticus): 0.5 µg/mL (≈ 0.473 µM) | MIC90 ([2]; Peptoniphilus asaccharolyticus): 1 µg/mL (≈ 0.945 µM) | MIC range [2]: 0.25 to 1.0 µg/mL | MIC90 (453 bacterial isolates): 1020 µg/mL (≈ 968 µM) | MIC50 (453 bacterial isolates; Total for all strains (453)): 8 µg/mL (≈ 7.56 µM)
